Assay results taken from patent publication US5380763A, “Topical composition for treating acne vulgaris” (Takasago International Corporation, priority 1992, dated 1995).
Values after ≈ are worked out from the molar mass of the structure shown. Like-named read-outs stand apart in the source and are kept apart here.

Columns and labels:
[1] = system: Staphylococcus aureaus; settings: among 1-alkanols having 10 to 16 carbon atoms; Kato et al. (1980); cited from earlier work
[2] = system: Propionibacterium acnes; test: Minimum inhibitory concentration (MIC) against Propionibacterium acnes (Test Example 1); assay type: cell-based, Propionibacterium acnes (ATCC 6919); settings: Cutibacterium acnes
Description: The minimum inhibitory concentration (MIC) of 1-pentadecanol against Propionibacterium acnes was determined as follows.
In 1 l of purified water was dissolved 59.0 g of a GAM (Gifu anaerobic medium) bouillon medium (Nissui Pharmaceutical Co., Ltd.) and 1-pentadecanol was added to the bouillon solution to give a concentration of 100 μg/ml. The mixture was stepwise diluted two times with the same medium, followed by sterilization.
A 10 ml aliquot of the mixture was put in a test tube and inoculated with 0.1 ml of the culture of Propionibacterium acnes (ATCC 6919) which had been precultured so as to give a cell density of 1×10^8 cells/ml. The system was static-cultured under anaerobic conditions for 48 hours, and the turbidity was measured at a wavelength of 660 nm to obtain MIC (μg/ml).
For comparison, MIC of 1-dodecanol and 1-hexadecanol, which have relatively strong antibacterial activity on several bacteria and are generally used as a base of cosmetics, against Propionibacterium acnes was obtained in the same manner.

[3] = GAM bouillon medium, anaerobic static culture 48 hours, turbidity at 660 nm, read-out: MIC

Row | MIC [2, 3] | Compound | effectiveness on Staphylococcus aureaus [1] | MIC ([2]; 48 h)
1 | 25 µg/mL (≈ 134 µM) | CCCCCCCCCCCCO [1-dodecanol] | the most effective | 
2 | > 200 µg/mL | CCCCCCCCCCCCCCCCO [1-hexadecanol] |  | 
3 |  | CCCCCCCCCCCCCCCO [1-pentadecanol] |  | 3.13 µg/mL (≈ 13.7 µM)
